The values below come from patent US20130183323A1, “TARGETED ANTIBIOTIC AND ANTIMICROBIAL TREATMENTS FOR PERSONALIZED ADMINISTRATION” (priority 2011, published 2013).

In brackets after ≈: the same amount, converted by molar mass.

Holding throughout (assay): minimum inhibition concentration (MIC) for tetracycline
Assay type in all cases: cell-based
Conditions in all cases: tetracycline resistant isolate from aquaculture environment

The subject of experiment [1] is Plesiomonas shigelloides 17iT21. As to the method: (§1) Study 1. The variability of antibiotic resistant (ART) bacteria in responding to drug treatment was evaluated using tetracycline resistant isolates in brain heart infusion (BHI) broth. […] All strains were isolated from aquaculture environment. The bacteria in different titer were grown in BHI with different concentration of tetracycline conjugated to antibody against Enterococcus.

Experiment [2] deals with Enterococcus sp. 18fT3. As to the method:
as §1

For experiment [3], the system named is Enterococcus sp. 17fT4. As to the method:
as §1

The MIC is the lowest concentration that inhibits growth of the organism. Low readings indicate a more susceptible organism, high ones a less susceptible organism. For the molecule `CN(C)[C@@H]1C(O)=C(C(N)=O)C(=O)[C@@]2(O)C(O)=C3C(=O)c4c(O)cccc4[C@@](C)(O)[C@H]3C[C@@H]12` [tetracycline], the minimal inhibitory concentration (MIC) turned out to be 64 µg/mL (≈ 144 µM) in experiment [1], 512 µg/mL (≈ 1150 µM) in experiment [2] and 128 µg/mL (≈ 288 µM) in experiment [3].
